What was measured:
[1] = test system: E. coli ATCC 25922; experiment: Viable count analysis in mouse plasma; assay type: cell-based, Escherichia coli; conditions: E. coli ATCC 25922, viable count, mouse plasma (Figure S2)
Experimental: E. coli were grown to mid-exponential phase in Todd-Hewitt (TH). Bacteria were washed and diluted in 10 mM Tris, pH 7.4 either alone or with 20 % human or mouse (BALB/c) citrate-plasma. Bacterial (2 × 10^6 cfu/ml) were incubated in 50 μl, at 37 °C for 1 h with the C-terminal TFPI-2 derived peptides at the indicated concentrations. Serial dilutions of the incubation mixture were plated on TH agar, followed by incubation at 37 °C overnight and cfu determination. Additional file 1: Figure S1. Phylogenetic tree analysis of full-length and reminder protein except C-terminal TFPI-2 from vertebrates. Phylogenetic tree from 72 vertebrate TFPI-2 species was constructed using Neighbour-Joining tree with 1000 bootstrap replications on MEGA6. (PDF 54 kb) Additional file 2: Figure S2. Activities of TFPI-2 C-terminal derived peptides in mouse plasma. (Left) The bactericidal activity of mouse VKG24 peptide was assessed in physiological buffer conditions using viable count analysis. E. coli ATCC 25922 were grown to mid-logarithmic phase and incubated with varying concentrations of peptide. The antimicrobial activity was determined by plating serial dilutions of bacteria on TH agar plates and number of cfu was counted after overnight incubation. (Right) The activated partial thromboplastin time (aPTT) was determined by addition of buffer or 50 μM of VKG24 peptide to mouse plasma. […]

[2] = test system: intrinsic pathway of coagulation; experiment: Activated partial thromboplastin time (aPTT) in mouse plasma; assay type: biochemical; conditions: peptide 50 μM, n = 3 (Figure S2)
Experimental: All clotting times were analyzed using a coagulometer (Amelung, Lemgo, Germany). For determination of activated partial thromboplastin time (aPTT), 100 μl of a kaolin-containing solution (Technoclone) was added to the 100 μl of fresh citrate plasma or citrate plasma peptide mix and incubated at 37 °C for 200 s before clot formation was initiated by adding 100 μl of 30 mM fresh CaCl2 solution. For detection of prothrombin time (PT, thromboplastin reagent (Trinity Biotech)) 100 μl of fresh citrate plasma were incubated 60 s at 37 °C before clot formation was initiated by adding 100 μl of clotting reagent. Additional file 1: Figure S1. Phylogenetic tree analysis of full-length and reminder protein except C-terminal TFPI-2 from vertebrates. Phylogenetic tree from 72 vertebrate TFPI-2 species was constructed using Neighbour-Joining tree with 1000 bootstrap replications on MEGA6. (PDF 54 kb) Additional file 2: Figure S2. […] (Left) The bactericidal activity of mouse VKG24 peptide was assessed in physiological buffer conditions using viable count analysis. […] The antimicrobial activity was determined by plating serial dilutions of bacteria on TH agar plates and number of cfu was counted after overnight incubation. (Right) The activated partial thromboplastin time (aPTT) was determined by addition of buffer or 50 μM of VKG24 peptide to mouse plasma. […]

[3] = test system: E. coli LPS-induced septic shock in Balb/c mice; experiment: LPS-induced septic shock mouse model (survival, weight); assay type: in vivo; conditions: 10 mg/kg E. coli LPS i.p.
Experimental: (§1) Fig. 6 Treatment of LPS-induced septic shock mice with a mouse TFPI-2 derived peptide. Septic shock in Balb/c mice was induced by i.p. injection of 10 mg/kg E. coli LPS. […] Statistical comparisons of survival curves were performed using the Mantel-Cox’s test. ***P ≤ 0.0003. b Weight was determined daily. c Clotting times of aPTT and PT was measured in citrate plasma 24 h after LPS injection (n = 8). d The indicated cytokines were analyzed in plasma 24 h after LPS injection (n = 8). Statistical analysis for C-D, one-way ANOVA with Tukey’s multiple comparisons post-test was used. **P ≤ 0.003, ****P ≤ 0.0001
(§2) Male/female balb/c mice (8 weeks, 21 ± 5 g) were injected intraperitoneally (i.p.) with 10 mg E. coli 0111:B4 LPS (Sigma) per kg of body weight. Thirty minutes after LPS injection, 0.5 mg VKG24 (25 mg/kg) or PBS buffer alone (control) were injected i.p. into the mice. Status and weight were monitored daily for seven days. Mice where immobilization and/or shaking was observed were euthanized by an overdose of isoflurane (Abbott) and counted as non-survivors. For determination of cytokine levels in mouse plasma, animals were sacrificed 24 h after LPS injection. The blood was collected immediately by cardiac puncture into citrate tubes.

[4] = test system: intrinsic and extrinsic coagulation pathways; experiment: Clotting times (aPTT, PT) in citrate plasma of LPS-injected mice; assay type: in vivo, mouse; conditions: peptide ~25 mg/kg i.p.
Experimental: Fig. 6 Treatment of LPS-induced septic shock mice with a mouse TFPI-2 derived peptide. […] Statistical analysis for C-D, one-way ANOVA with Tukey’s multiple comparisons post-test was used. **P ≤ 0.003, ****P ≤ 0.0001
as §2
All clotting times were analyzed using a coagulometer (Amelung, Lemgo, Germany). For determination of activated partial thromboplastin time (aPTT), 100 μl of a kaolin-containing solution (Technoclone) was added to the 100 μl of fresh citrate plasma or citrate plasma peptide mix and incubated at 37 °C for 200 s before clot formation was initiated by adding 100 μl of 30 mM fresh CaCl2 solution. For detection of prothrombin time (PT, thromboplastin reagent (Trinity Biotech)) 100 μl of fresh citrate plasma were incubated 60 s at 37 °C before clot formation was initiated by adding 100 μl of clotting reagent.

[5] = test system: IL-6, MCP-1, IFN-γ, IL-10; experiment: Cytokine assay in plasma of LPS-injected mice; assay type: in vivo, mouse; conditions: 24 h after LPS injection, peptide ~25 mg/kg i.p., n = 8
Experimental: as §1, §2
Cytokines IL-6, IL-10, MCP-1, INF-γ and TNF-α were measured in plasma from mice infected by E. coli LPS (with or without peptide treatment) using the Cytometric bead array; mouse inflammation kit (Becton Dickinson AB) according to the manufacturer’s instructions. All plasma samples were stored at −80 °C before the analysis.

[6] = citrate plasma 24 h after LPS injection, n = 8

“VKGWKKPKRWKIGDFLPRFWKHLS [VKG24, mouse TFPI-2 C-terminal derived peptide (O35536)]” was tested, and the “antimicrobial activity in mouse plasma” value [1] was “potent”, the “anti-coagulant activity in mouse plasma (aPTT)” value [2] was “potent” and the survival rate ([3]; peptide 0.5 mg/mouse (~25 mg/kg) i.p. 30 min after LPS, monitored 7 days) was “dramatic improvement”. The body weight ([3]; peptide ~25 mg/kg i.p. 30 min after LPS, weight determined daily) was “started regaining their weight from day three”, the “coagulation PT time” value [4, 6] was “significantly decreased” and the “coagulation aPTT time” value [4, 6] was “significantly decreased”. For the same sequence, the “coagulation aPTT and PT levels in survivors” value ([4]; survivors) was “completely normalized”, the IFN-γ in plasma [5] was “significant reduction” and the IL-6 in plasma [5] was “significant reduction”. For the same sequence, the IL-10 in plasma [5] was “significant reduction” and the MCP-1 in plasma [5] was “significant reduction”.

Source: article PMC4924314, “Vertebrate TFPI-2 C-terminal peptides exert therapeutic applications against Gram-negative infections” (BMC Microbiology, 2016)
